Consider four molecules from US7968577B2 (Bristol-Myers Squibb Company, priority 2006, dated 2011).

Experiment [1] has as its target T1, human full-length glucocorticoid receptor (Homo sapiens, UniProt P04150).
T1 construct: recombinantly expressed human full-length glucocorticoid receptor; purchased PanVera Co., Madison, Wis; P2816
T1 sequence (P04150 1-777): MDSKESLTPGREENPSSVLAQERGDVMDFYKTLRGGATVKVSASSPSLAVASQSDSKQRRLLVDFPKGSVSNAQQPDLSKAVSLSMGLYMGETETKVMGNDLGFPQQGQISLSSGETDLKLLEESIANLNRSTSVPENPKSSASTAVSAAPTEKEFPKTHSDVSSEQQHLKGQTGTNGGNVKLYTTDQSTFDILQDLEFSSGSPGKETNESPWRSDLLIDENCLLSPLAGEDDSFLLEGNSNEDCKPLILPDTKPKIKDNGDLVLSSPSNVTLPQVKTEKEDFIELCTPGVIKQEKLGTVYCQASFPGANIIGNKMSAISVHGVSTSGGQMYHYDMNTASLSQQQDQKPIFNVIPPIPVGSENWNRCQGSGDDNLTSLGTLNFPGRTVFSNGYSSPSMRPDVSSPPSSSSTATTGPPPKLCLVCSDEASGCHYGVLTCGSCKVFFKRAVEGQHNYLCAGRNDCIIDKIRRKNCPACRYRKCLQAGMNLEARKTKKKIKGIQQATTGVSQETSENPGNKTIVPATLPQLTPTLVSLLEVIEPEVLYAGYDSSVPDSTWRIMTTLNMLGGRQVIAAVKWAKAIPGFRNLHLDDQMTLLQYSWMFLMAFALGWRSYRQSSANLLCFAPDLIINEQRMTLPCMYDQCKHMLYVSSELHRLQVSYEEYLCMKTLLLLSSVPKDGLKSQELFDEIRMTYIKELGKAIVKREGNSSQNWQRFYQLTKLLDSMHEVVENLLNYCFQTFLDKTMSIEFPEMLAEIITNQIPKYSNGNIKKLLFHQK
Nature of the experiment: Glucocorticoid Receptor Binding Assay (II), fluorescence polarization competitor kit (Fluormone GS1). The settings on record: GR Binding Assay (II). The gist of the method:
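Cell lysate with recombinant receptor incubated with 1 nM Fluormone GS1 tracer, with or without test compound, for one hour at room temperature. Binding read as displacement by fluorescence polarization.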
Background: Polarisation of emitted light reports the rotation of a fluorescent probe.

For experiment [2], the target named is T2, human glucocorticoid receptor (Homo sapiens, UniProt P04150).
T2 construct: purified human recombinant full-length glucocorticoid receptor; purchased Invitrogen Part #2893
T2 sequence (P04150 1-777): T1 sequence (P04150 1-777)
Nature of the experiment: Glucocorticoid Receptor Binding Assay (I), fluorescence polarization competitor kit (Fluormone GS Red). The settings on record: GR Binding Assay (I). An outline of the steps:
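Fluorescence polarization competition using full-length recombinant human GR (2 nM) and Fluormone GS Red tracer (1 nM). Incubated 2 h at room temperature in the dark. Compounds tested from 8.5 E-05 μM to 5 μM.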

As usually defined, the Ki is a dissociation constant, usually derived from enzyme kinetics or from competition with a known ligand. A low value points to tighter binding. Regarding `CC(C)(C(=O)Nc1nncs1)C(c1ccc(N2CCOCC2)cc1)c1cccc(F)c1` (single isomer, unassigned) [Example 256, 3-(3-fluorophenyl)-2,2-dimethyl-3-(4-(4-morpholinyl)phenyl)-N-1,3,4-thiadiazol-2-ylpropanamide], the Ki in experiment [1] worked out at 121 nM; in experiment [2], 125 nM.

For `Cc1cccc(C(c2ccc(N3CCOCC3)cc2)C(C)(C)C(=O)Nc2nncs2)c1` (centres unmarked) [Example 235, 2,2-dimethyl-3-(3-methylphenyl)-3-(4-(4-morpholinyl)phenyl)-N-1,3,4-thiadiazol-2-ylpropanamide], the Ki in experiment [1] amounted to 13.6 nM; in experiment [2], 5.19 nM.

For `CC(C)(C(=O)Nc1nccs1)C(c1ccc(N2CCOCC2)cc1)c1cccc(F)c1` (single isomer, unassigned) [Example 254, 3-(3-fluorophenyl)-2,2-dimethyl-3-(4-(4-morpholinyl)phenyl)-N-1,3-thiazol-2-ylpropanamide], the Ki in experiment [1] amounted to 25.8 nM; in experiment [2], 104 nM.

As for `CC(C)(C(=O)Nc1nccs1)[C@H](c1ccccc1)c1ccc(O)cc1` [Example 326, (3R)-3-(4-hydroxyphenyl)-2,2-dimethyl-3-phenyl-N-1,3-thiazol-2-ylpropanamide], the Ki was determined as 12.9 nM in experiment [1] and 18.7 nM in experiment [2].
